Patent US4066650A, “Keto-aldehyde-amine addition products and method of making same” (priority 1975, dated 1978)

Key:
[1] = in vivo; conditions: mouse, in vivo, ip
Protocol: (§1) The biological effects of methylglyoxal maleimide ("A") and methylglyoxal glutaconic imide ("B") were determined by tests on normal (non-tumorous) and subcutaneous Sarcoma-180 tumor-bearing mice. […] The compounds were administered by intraperitoneal route and the values were calculated by standard methods (Goldin A., in Meth.Can.Res. 4, p. 193, 1968).
(§2) A thirty-day survival test was carried out with normal mice to determine any possible delayed toxicity.
(§3) The test solutions were prepared by dissolving either 38.72 mg of methylglyoxal maleimide ("A") or 5278 mg of methylglyoxal glutaconic imide ("B") in 100 ml of physiological saline. The pH of the solution was adjusted to 6.0, sterilized on Millipore filtration and stored in sterile vials at about 10° C. One […] of such solutions contained 0.387 mg of compound "A" or 52.78 mg of compound "B", respectively and when injected into mice of an average weight of 26 grams the dose was equivalent to 14.884 mg/kg of the compound "A" and 2030 mg/kg of the compound "B".
(§4) Normal, non-tumor-bearing mice of the same strain, sex and weight were also randomized and placed in separate test groups.
(§5) The compositions were injected at different dose levels, each dose being double the next-lower dose, with three test groups (30 mice) for each dose level. The injection was effected intraperitoneally into normal and tumor-bearing mice, starting on the fourth day after the inocculation with cancer, once daily for ten consecutive days. […] A proper number of normal and tumorous mice was treated with saline solution in the same manner, frequency and volume as a control experiment. The body weight change and mortality (acute toxicity) were recorded daily.
(§6) A number of normal animals treated with the drugs in the same manner as the tumorous ones were also sacrificed on the eleventh day, and their organs were collected for histological examination.

[2] = system: normal (non-tumorous) mice; assay: Acute toxicity (mortality), body weight change and 30-day survival in normal mice; conditions: for LD10 (maximum tolerated dose at 10% lethality) / effect of reduction in the total volume of injection on mortality: mice; for LD10 (maximum tolerated dose at 10% lethality) / 30 day mortality rate of all treated nontumorous animals (compared with mortality in 10 days): i.p. daily for 10 days; for effect of reduction in the total volume of injection on mortality: i.p., volume below 1.0 ml/animal/day; for 30 day mortality rate of all treated nontumorous animals (compared with mortality in 10 days): 30 day observation
Protocol: as §1, §2, §3, §4, §5, §6

[3] = system: Sarcoma-180; assay: Anti-tumor action on subcutaneous Sarcoma-180 in mice; assay type: in vivo, Swiss albino mice (Charles River CD-1 strain); design: ED: unit not given here; conditions: for IT (therapeutic index LD10/ED90): mice
Protocol: On the eleventh day (tumer age 14 days) the test and control mice were sacrificed, the tumor or tumorous area was cut out, weighed and stored in formaldehyde for histological examination. At the same time the liver, kidneys, spleen, heart, and a piece of the small intestine were collected and stored in formaldehyde for histopathological evaluation of the effect of the drugs on these tissues and organs.
The anti-neoplastic action of the drugs was assayed by comparison of the tumor weight present in treated and control animals and expressed as the percent of controls average weight (T/C%). The presence of malignancy in the tumors or tumor-areas of the treated animals was verified by histological examination.
The reabsorption of tissue, formed between the inocculation of the cancer cells and the onset of the treatment is relatively slow. Treated animals even under strong cancerostatic action of the drugs show a small quantity (100-200 mg) of tissue in the area where the tumor cells where deposited. It is therefore difficult to tell the nature of these residual tissues by macroscopic examination. Most of these residual "lumps" are made up of connective tissues and necrotic, scar tissues. If it were regarded as neoplasia without histological examination the T/C% calculation would give an erratic result in the evaluation of the anti-cancer action of the compound. Histological examination of these "lumps" therefore is exceedingly important in order to arrive at a valid evaluation of the effectiveness of the drugs especially in short-term experiments (10 days) as carried out in the present assays.

[4] = system: Sarcoma-180 tumor-bearing mice; assay: Acute toxicity (mortality) and body weight change in Sarcoma-180 tumor-bearing mice
Protocol: as §1, §3
(§7) Random-bred Swiss albino mice (Charles River CD-1 strain, average weight 26±3 g, females) were inocculated with 25 million Sarcoma-180 cells (in about 0.25 ml of ascitic fluid, cell age 7 days) on the right scapular region. The animals were randomized on the 4th day after the inocculation with the cancer cells, placed in separate test groups of 10 mice per group (5 mice/cage) and weighed.
(§8) The compositions were injected at different dose levels, each dose being double the next-lower dose, with three test groups (30 mice) for each dose level. The injection was effected intraperitoneally into normal and tumor-bearing mice, starting on the fourth day after the inocculation with cancer, once daily for ten consecutive days. The volume of the injection at each dose level was brought up to 1.0 ml with saline. A proper number of normal and tumorous mice was treated with saline solution in the same manner, frequency and volume as a control experiment. The body weight change and mortality (acute toxicity) were recorded daily.

[5] = as above; conditions: mouse, in vivo, ip
Protocol: as §1, §3, §7, §8

[6] = system: skin graft; assay: Skin graft rejection (orthotopic skin heterografts white to gray and gray to white); assay type: in vivo, Swiss albino mice and C3HStCrl mice; conditions: 3.744 mg/kg i.p. daily, cumulative; for rejection on 31-40 days: g to w line; for rejection on 26-30 days: w to g line
From the text: Skin grafting in mice is well established and this tissue is among the most sensitive indicators of histocompability differences. The retnetion of skin graft between genetically non-related mice is an excellent method of evaluating activity against rejection mechanism. p As the rejection of transplants is associated with antigen formation against the incompatible proteins of the donated tissue, a drug which specifically represses the protein synthesis without affecting the intermediary metabolism of the host is a potential candidate for combatting rejection.
The experiments described here were performed on random-bred Swiss albino mice (white, females, average body weight 26±3 g; Charles River CD-1-strain) and inbred C3HStCrl mice (cinnamon gray, females, average body weight 20±2 grams; Charles River pedigreed breeders from L. C. Strong Foundation) and othotopic skin transplants were made in both ways, that is, white to gray and gray to white.
Standard transplantation technique (R. E. Billingham, W. K. Silvers in Transplantation of tissues and cells, The Wistar Institute Press, Philadelphia, p. 8, 1961) was utilized: From nembutal anesthetized animals 4-6 "pinch"-grafts (full thickness, 3-4 mm in diameter) of the close clipped and sterilized skin were collected from the thorax and immediately transplanted. The grafts were positioned in the "beds" (in place of the pinch-graft) and were held in position by tulle gras (vaseline-impregnatedgauze) and by plaster-of-Paris impregnated bandage around the thorax.
The bandages were removed on the 6-9th day after the transplantation and the future development of the grafts was followed by macroscopical observations.
Positive and negative controls were made simultaneously for skin rejection:
a. Four positive control isografts (white to white, and gray to gray) were made. […] On the 21-28th day the fur-bearing skin had regenerated a completely new crop of hairs indistinguishable from the original population with respect to colors, density and orientation.
b. Four negative control heterografts (white to gray and gray to white) were made without treatment. […] On the 10-12th day after transplantation intravascular thrombies, capillary ruptures, extravasation of blood were the first signs that the grafts were heading for necrosis and rejection which occurred on the 18-25th day.
The heterografts with treatment followed three courses with methylglyoxal-maleimide (at dose level 3.744 mg/kg/animal/day) administered intraperitoneally in a total amount of 1.0 ml/animal/day.
i. Animals were treated for 10 days with the composition before grafts were exchanged and treatment was discontinued on the day of transplantation.
ii. Animals were not treated before the grafts were exchanged but the treatment started on the day of transplantation and continued for 10 days.
iii. Animals were treated for 10 days with the drug before the grafts were exchanged and the treatment schedule was continued for 25 days after the transplantation.

[7] = Water solubility; assay type: physicochemical
[8] = tumorous mice, 0.234 mg/kg i.p. daily for 10 days
[9] = tumorous mice, 0.468 mg/kg i.p. daily for 10 days
[10] = tumorous mice, 0.936 mg/kg i.p. daily for 10 days
[11] = tumorous mice, 1.872 mg/kg i.p. daily for 10 days
[12] = tumorous mice, 3.744 mg/kg i.p. daily for 10 days
[13] = tumorous mice, 7.488 mg/kg i.p. daily for 10 days
[14] = (ii) post graft treatment for 10 days
[15] = (iii) pretreatment for 10 days and post graft treatment for 25 days

CC(=O)C(O)N1C(=O)C=CC1=O (centres unmarked) [Methylglyoxal-maleimide, N'-(2-keto-propane-1-ol)-2,5-dioxopyrroline-3-ene]
mortality at 240 h ([1]; 0.234 mg/kg): 0% | mortality at 240 h ([1]; 0.468 mg/kg): 0% | mortality at 240 h ([1]; 0.936 mg/kg): 0% | mortality at 240 h ([1]; 1.872 mg/kg): 0% | mortality at 240 h ([1]; 3.744 mg/kg): 0% | mortality at 240 h ([1]; 7.488 mg/kg): 0% | mortality at 240 h ([1]; 14.896 mg/kg): 100% | LD10 (maximum tolerated dose at 10% lethality) [2]: 8.59 mg/kg | effect of reduction in the total volume of injection on mortality [2]: increase in mortality | Δ body wt ([2]; normal mice, 0.234 mg/kg i.p. daily for 10 days): +1.0 | Δ body wt ([2]; normal mice, 0.468 mg/kg i.p. daily for 10 days): +0.7 | Δ body wt ([2]; normal mice, 0.936 mg/kg i.p. daily for 10 days): +0.46 | Δ body wt ([2]; normal mice, 1.872 mg/kg i.p. daily for 10 days): +0.39 | Δ body wt ([2]; normal mice, 3.744 mg/kg i.p. daily for 10 days): +0.1 | Δ body wt ([2]; normal mice, 7.488 mg/kg i.p. daily for 10 days): -0.2 | 30 day mortality rate of all treated nontumorous animals (compared with mortality in 10 days) ([2]; normal mice): identical | ED99 ([3]; Mus musculus, Sarcoma-180, ip, 240 h, tumorous mice, i.p. daily for 10 days): 1.15 mg/kg | IT (therapeutic index LD10/ED90) ([3]; i.p. daily for 10 days): 7.46 | ED% [3, 8]: > 0.5% | ED% [3, 9]: ~ 1% | ED% [3, 10]: 60% | ED% [3, 11]: 100% | ED% [3, 12]: 100% | ED% [3, 13]: 100% | Δ body wt [4, 8]: +0.96 | Δ body wt [4, 9]: +0.65 | Δ body wt [4, 10]: +0.6 | Δ body wt [4, 11]: +0.4 | Δ body wt [4, 12]: +0.3 | Δ body wt [4, 13]: +0.1 | mortality at 240 h ([5]; 0.234 mg/kg): 0% | mortality at 240 h ([5]; 0.468 mg/kg): 0% | mortality at 240 h ([5]; 0.936 mg/kg): 0% | mortality at 240 h ([5]; 1.872 mg/kg): 0% | mortality at 240 h ([5]; 3.744 mg/kg): 0% | mortality at 240 h ([5]; 7.488 mg/kg): 0% | mortality at 240 h ([5]; 14.896 mg/kg): 100% | rejection on 31-40 days ([6]; (i) pretreatment for 10 days): 100% | rejection on 26-30 days ([6]; (i) pretreatment for 10 days): 30% | rejection on 31-40 days [6, 14]: 60% | rejection on 26-30 days [6, 14]: 10% | rejection on 31-40 days [6, 15]: 10% | rejection on 26-30 days [6, 15]: No rejection

CC(=O)C(O)N1C(=O)CCC1=O (centres unmarked) [Methylglyoxal-succinimide, N-(2-keto-propane-1ol)-2,5diketo pyrrolidine]
water solubility [7]: high

CC(=O)C(O)N1C(=O)C=CCC1=O (centres unmarked) [Methylglyoxal-glutaconic imide, N'-(2-keto-propane-1-ol)-2,6-dioxopyridine]
mortality at 240 h ([1]; 63.5 mg/kg): 0% | mortality at 240 h ([1]; 127 mg/kg): 0% | mortality at 240 h ([1]; 254 mg/kg): 0% | mortality at 240 h ([1]; 508 mg/kg): 0% | mortality at 240 h ([1]; 1016 mg/kg): 0% | mortality at 240 h ([1]; 2032 mg/kg): 100% | LD10 (maximum tolerated dose at 10% lethality) [2]: 1310 mg;kg | effect of reduction in the total volume of injection on mortality [2]: increase in mortality | Δ body wt ([2]; mouse, in vivo, ip, 63.5 mg/kg): +0.55 | Δ body wt ([2]; mouse, in vivo, ip, 127 mg/kg): +0.3 | Δ body wt ([2]; mouse, in vivo, ip, 254 mg/kg): +0.15 | Δ body wt ([2]; mouse, in vivo, ip, 508 mg/kg): -0.1 | Δ body wt ([2]; mouse, in vivo, ip, 1016 mg/kg): -0.1 | Δ body wt ([2]; mouse, in vivo, ip, 1524 mg/kg): -0.4 | 30 day mortality rate of all treated nontumorous animals (compared with mortality in 10 days) ([2]; normal mice): identical | ED90 ([3]; Mus musculus, Sarcoma-180, ip, 240 h, read-out: ED90 (effective dose at 90% effectiveness)): 210 mg/kg | IT (therapeutic index LD10/ED90) ([3]; i.p. daily for 10 days): 6.23 | ED ([3]; tumorous mice, 63.5 mg/kg i.p. daily for 10 days): > 5 | ED ([3]; tumorous mice, 127 mg/kg i.p. daily for 10 days): 55 | ED ([3]; tumorous mice, 254 mg/kg i.p. daily for 10 days): 100 | ED ([3]; tumorous mice, 508 mg/kg i.p. daily for 10 days): 100 | ED ([3]; tumorous mice, 1016 mg/kg i.p. daily for 10 days): 100 | Δ body wt ([4]; mouse, in vivo, ip, 63.5 mg/kg): +0.6 | Δ body wt ([4]; mouse, in vivo, ip, 127 mg/kg): +0.35 | Δ body wt ([4]; mouse, in vivo, ip, 254 mg/kg): +0.4 | Δ body wt ([4]; mouse, in vivo, ip, 508 mg/kg): +0.1 | Δ body wt ([4]; mouse, in vivo, ip, 1016 mg/kg): -0.3 | mortality at 240 h ([5]; 63.5 mg/kg): 0% | mortality at 240 h ([5]; 127 mg/kg): 0% | mortality at 240 h ([5]; 254 mg/kg): 0% | mortality at 240 h ([5]; 508 mg/kg): 0% | mortality at 240 h ([5]; 1016 mg/kg): 0% | mortality at 240 h ([5]; 2032 mg/kg): 100%
